Experimental data published in patent US8658131B2, “Compounds comprising 4-benzoylpiperidine as a sigma-1-selective ligand” (Washington University, priority 2010, dated 2014).
Structures can show the parent of a compound that is named as a salt. Where two headings read alike, the source gives them in different places.

What was measured:
VAChT [1] = target: T1, VAChT (Homo sapiens, UniProt Q16572); details: previous study; cited from earlier work
T1 sequence (Q16572 1-532): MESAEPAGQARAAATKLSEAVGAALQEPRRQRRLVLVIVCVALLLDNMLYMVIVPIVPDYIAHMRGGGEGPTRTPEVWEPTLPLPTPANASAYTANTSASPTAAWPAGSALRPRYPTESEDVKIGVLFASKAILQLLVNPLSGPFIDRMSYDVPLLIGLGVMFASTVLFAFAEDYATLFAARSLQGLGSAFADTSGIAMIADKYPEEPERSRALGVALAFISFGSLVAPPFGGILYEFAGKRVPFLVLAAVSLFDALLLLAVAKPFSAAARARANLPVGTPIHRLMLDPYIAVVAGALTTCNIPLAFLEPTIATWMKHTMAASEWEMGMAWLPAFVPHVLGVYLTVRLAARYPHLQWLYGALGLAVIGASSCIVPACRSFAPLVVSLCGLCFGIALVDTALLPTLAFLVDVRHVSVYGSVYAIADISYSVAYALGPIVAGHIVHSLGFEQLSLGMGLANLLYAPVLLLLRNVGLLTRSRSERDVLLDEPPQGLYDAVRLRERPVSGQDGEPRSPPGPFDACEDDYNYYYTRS

σ1 receptor [2] = target: σ1 receptor (Homo sapiens, UniProt Q99720); details: prior art ligands of FIG. 1; read-out: σ1 receptor binding affinity; cited from earlier work
σ1 receptor (Homo sapiens, UniProt Q99720), sequence (Q99720 whole entry, species assumed): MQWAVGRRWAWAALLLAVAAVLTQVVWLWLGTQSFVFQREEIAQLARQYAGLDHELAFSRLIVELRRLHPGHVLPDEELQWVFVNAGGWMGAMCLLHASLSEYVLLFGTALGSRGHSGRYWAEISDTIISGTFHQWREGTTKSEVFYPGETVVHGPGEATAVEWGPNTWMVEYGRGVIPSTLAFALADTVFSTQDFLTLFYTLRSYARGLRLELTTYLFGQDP

σ1 receptors = target: T2, σ1 receptors (Rattus norvegicus, UniProt Q9R0C9); assay: σ1 binding of Table 5 compounds
T2 construct: tested in rat brain and in guinea pig membranes, respectively; from tissue; host or cells: rat brain
T2 sequence (Q9R0C9 whole entry): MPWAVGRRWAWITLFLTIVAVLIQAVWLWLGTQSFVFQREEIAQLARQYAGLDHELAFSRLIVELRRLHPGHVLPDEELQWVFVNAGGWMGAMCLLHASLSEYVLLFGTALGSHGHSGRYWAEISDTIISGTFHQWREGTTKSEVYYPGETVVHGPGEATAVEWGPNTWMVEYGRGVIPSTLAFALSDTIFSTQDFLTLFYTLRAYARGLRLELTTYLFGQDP

σ2 receptor [3] = target: T3, σ2 receptor (Rattus norvegicus, UniProt Q5U3Y7); assay: σ2 receptor binding assay, [3H]DTG, rat liver membrane homogenates; parameters: conducted using rat liver membrane homogenates; from tissue; host or cells: rat liver membrane homogenates
T3 sequence (Q5U3Y7 1-176): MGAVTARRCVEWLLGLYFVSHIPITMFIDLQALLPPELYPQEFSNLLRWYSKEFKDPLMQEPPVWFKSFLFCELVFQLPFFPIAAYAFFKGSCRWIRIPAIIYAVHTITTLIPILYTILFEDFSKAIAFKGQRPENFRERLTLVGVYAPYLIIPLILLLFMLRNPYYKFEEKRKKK
Method: (§1) The compounds were dissolved in DMF, DMSO, or ethanol, and then diluted in 50 mM Tris-HCl buffer containing 150 mM NaCl and 100 mM EDTA at pH 7.4, prior to performing the σ1 and σ2 receptor binding assays.
The incubation time was 2 h at room temperature. Nonspecific binding was determined from samples that contained 10 μM of cold haloperidol. All other procedures were identical to those described for the σ1 receptor binding assay above.
(§2) Ki values were calculated using the method of Cheng and Prusoff and are presented as the mean (±1 SEM).

σ2 receptor [4] = target: T3, σ2 receptor; assay: σ2 binding of Table 5 compounds; parameters: species or system guinea pig; details: read-out: σ2 Ki (nM) ± SEM; Table 6
Method: Compounds were tested for VAChT binding using highly purified Torpedo synaptic vesicles. The σ1 and σ2 binding affinities were tested in rat brain and in guinea pig membranes, respectively. Structures and Equilibrium binding constants (Ki) are reported in Table 5 and Table 6, respectively. As in previous studies, we define ligand selectivity in terms of a selectivity index which is calculated as Ki (σ1 or σ2)/Ki (VAChT).
Consequently, we also screened the target compounds for sigma binding to identify selective VAChT ligands from this new structural class of agents.

VAChT [5] = target: T4, VAChT (Tetronarce californica, UniProt P81721); assay: biochemical; format: binding; details: for VAChT/σ selectivity: in words; for σ1/VAChT: selectivity index Ki (σ1)/Ki (VAChT); for σ2/VAChT: selectivity index Ki (σ2)/Ki (VAChT)
T4 construct: using highly purified Torpedo synaptic vesicles; from tissue
T4 sequence (P81721 1-515): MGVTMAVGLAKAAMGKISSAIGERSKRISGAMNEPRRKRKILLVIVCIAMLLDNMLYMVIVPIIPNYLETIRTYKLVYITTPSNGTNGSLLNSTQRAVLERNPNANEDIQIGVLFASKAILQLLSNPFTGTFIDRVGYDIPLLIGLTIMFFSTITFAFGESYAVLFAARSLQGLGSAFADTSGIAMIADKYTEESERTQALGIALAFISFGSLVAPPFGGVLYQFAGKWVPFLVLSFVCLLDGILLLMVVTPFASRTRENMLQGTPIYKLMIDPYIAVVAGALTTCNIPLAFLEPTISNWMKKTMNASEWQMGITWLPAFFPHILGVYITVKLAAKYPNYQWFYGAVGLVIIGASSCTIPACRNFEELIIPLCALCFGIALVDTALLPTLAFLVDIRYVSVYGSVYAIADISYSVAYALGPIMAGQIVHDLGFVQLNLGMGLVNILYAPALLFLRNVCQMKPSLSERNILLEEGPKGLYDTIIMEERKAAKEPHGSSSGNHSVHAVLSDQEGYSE

[6] = target: T5, human vesicular acetylcholine transporter (VAChT) (Homo sapiens, UniProt Q16572); assay: VAChT binding assay, (−)-[3H]vesamicol, human VAChT expressed in PC12 cells
T5 construct: expressed in transfected cells; host or cells: PC12 A123.7 cells (crude extract / homogenized, partially clarified cells)
T5 sequence (Q16572 1-532): T1 sequence (Q16572 1-532)
Method: In vitro binding assays of these novel compounds to VAChT were conducted with human vesicular acetylcholine transporter (VAChT) permanently expressed in PC12^A123.7 cells at about 50 pmol/mg of crude extract. […] Duplicate data were averaged and fitted by regression with a rectangular hyperbola to estimate the Ki value of the novel compound. All compounds were independently assayed at least two times.

σ1 receptor [7] = target: T6, σ1 receptor (Cavia porcellus, UniProt Q60492); assay: σ1 receptor binding assay, (+)-[3H]pentazocine, guinea pig brain membranes
T6 construct: using guinea pig brain membrane homogenates; from tissue; host or cells: guinea pig brain membrane homogenates
T6 sequence (Q60492 whole entry): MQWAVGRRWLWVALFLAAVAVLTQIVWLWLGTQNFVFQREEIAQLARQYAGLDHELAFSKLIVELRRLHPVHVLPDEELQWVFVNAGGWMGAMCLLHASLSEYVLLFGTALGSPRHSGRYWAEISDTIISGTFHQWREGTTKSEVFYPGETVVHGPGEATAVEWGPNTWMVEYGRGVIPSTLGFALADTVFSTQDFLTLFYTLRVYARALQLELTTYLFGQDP
Method: as §1
The total incubation time was 90 min at room temperature. Nonspecific binding was determined from samples that contained 10 μM of cold haloperidol. After 90 min, the reaction was quenched by adding 150 μL of ice-cold wash buffer (10 mM Tris-HCl, 150 mM NaCl, pH 7.4) using a 96 channel transfer pipet (Fisher Scientific, Pittsburgh, Pa.). The samples were harvested and filtered rapidly through a 96-well fiberglass filter plate (Millipore, Billerica, Mass.) that had been presoaked with 100 μL of 50 mM Tris-HCl buffer at pH 8.0 for 1 h.
as §2

[8] = Sigma-2 σ1 (nM), Table 4, Ki values of VAChT specific compounds, tissue not given

## O=C(c1ccc(F)cc1)C1CCN(C2CCN(C(=O)c3ccc(F)cc3)CC2O)CC1 (centres unmarked) (as salt: oxalate) [Compound 15a, (3′-Hydroxy-[1,4′-bipiperidine]-1′,4-diyl)bis(4-fluorophenyl)methanone]
other
  melting point: 213 °C (dec.)

## O=C(c1ccc(F)cc1)C1CCN(C2CCN(C(=O)c3ccccc3)CC2O)CC1 (centres unmarked) (as salt: oxalate) [Compound 15c, (1′-Benzoyl-3′-hydroxy-[1,4′-bipiperidin]-4-yl)(4-fluorophenyl)methanone]
other
  melting point: 152 °C (dec.)

## COc1ccc(C(=O)C2CCN(C3CCN(C(=O)c4ccc(F)cc4)CC3O)CC2)cc1 (centres unmarked) (as salt: oxalate) [Compound 15e, (1′-(4-Fluorobenzoyl)-3′-hydroxy-[1,4′-bipiperidin]-4-yl)(4-methoxyphenyl)methanone]
other
  melting point: 216 °C (dec.)

## COc1ccc(C(=O)C2CCN(C3CCN(C(=O)c4ccncc4)CC3O)CC2)cc1 (centres unmarked) (as salt: oxalate) [Compound 15g, (3′-Hydroxy-1′-isonicotinoyl-[1,4′-bipiperidin]-4-yl)(4-methoxyphenyl)methanone]
other
  melting point: 220 °C (dec.)

## Cn1cccc1C(=O)C1CCN(C2Cc3ccccc3CC2O)CC1 (centres unmarked) (as salt: oxalate) [OS-5-60, (1-(3-Hydroxy-1,2,3,4-tetrahydronaphthalen-2-yl)piperidin-4-yl)(1-methyl-1H-pyrrol-2-yl) methanone oxalate]
other
  melting point: 212 to 213 °C

## Cc1ccc(C(=O)C2CCN(C3Cc4c(N)cccc4CC3O)CC2)cn1 (centres unmarked) (as salt: oxalate) [OS-5-70, (1-(8-amino-3-hydroxy-1,2,3,4-tetrahydronaphthalen-2-yl)piperidin-4-yl)(6-methylpyridin-3-yl)methanone oxalate]
other
  melting point: 98 to 103 °C

## COc1ccc(C(=O)C2CCN(C3Cc4c(N)cccc4CC3O)CC2)cn1 (centres unmarked) (as salt: oxalate) [OS-5-82, (1-(8-Amino-3-hydroxy-1,2,3,4-tetrahydronaphthalen-2-yl)piperidin-4-yl)(6-methoxypyridin-3-yl)methanone oxalate]
other
  melting point: 81.4 to 83.2 °C

## Nc1cccc2c1CC(N1CCC(C(=O)c3cccnc3)CC1)C(O)C2 (centres unmarked) (as salt: oxalate) [OS-5-110, (1-(8-Amino-3-hydroxy-1,2,3,4-tetrahydronaphthalen-2-yl)piperidin-4-yl)(pyridin-3-yl)methanone oxalate]
other
  melting point: 109 to 111.2 °C

## COc1ccc(C(=O)C2CCN(C3CCN(Cc4ccccc4)CC3O)CC2)cc1 (racemic) (as salt: oxalate) [Compound 14g, (1′-Benzyl-3′-hydroxy-[1,4′-bipiperidin]-4-yl)(4-methoxyphenyl)methanone]
other
  melting point: 234 °C (dec.)

## COc1ccc(C(=O)C2CCN(C3CCN(Cc4ccncc4)CC3O)CC2)cc1 (racemic) (as salt: oxalate) [Compound 14h, (3′-Hydroxy-1′-(pyridin-4-ylmethyl)-[1,4′-bipiperidin]-4-yl)(4-methoxyphenyl)methanone]
other
  melting point: 188 °C (dec.)

## O=C(c1ccc([18F])cc1)C1CCN(C2Cc3ccccc3CC2O)CC1 (racemic) [FBBV, (±)-trcms-2-Hydroxy-3-(4-(4-[^18F]fluorobenzoyDpiperidino)tetralin]
VAChT [1]
  Ki: 0.0027 µM

## Cc1ccc(C2CCN(C3CCCCC3O)CC2)cc1 (single isomer, unassigned; (-)) [(−)-p-methylvesamicol]
σ1 receptor [2]
  Ki: 0.0081 µM

## OC1CCCCC1N1CCC(c2ccccc2)CC1 (single isomer, unassigned; (-)) [(−)-vesamicol, (−)-trans-2-(4-phenylpiperidino)cyclohexanol]
σ1 receptor [2]
  Ki: 0.0735 µM

## O[C@H]1CCCC[C@@H]1N1CCC(c2ccc(I)s2)CC1 [(1S,2S)-2-(4-(5-iodothiophen-2-yl)piperidin-1-yl)cyclohexanol]
σ1 receptor [2]
  Ki: 0.00939 µM

## Cc1ccc(C(=O)C2CCN(C3Cc4ccccc4CC3O)CC2)cn1 (centres unmarked) [OS-5-40, oxalate]
σ1 receptors
  Ki: 2.11 ± 0.289 µM
σ2 receptor [3]; [8]
  Ki: 3770 ± 886 nM
σ2 receptor [4]
  Ki: 3770 ± 886 nM

## Cn1cccc1C(=O)C1CCN(C2Cc3ccccc3CC2O)CC1 (centres unmarked) [OS-5-60, (1-(3-Hydroxy-1,2,3,4-tetrahydronaphthalen-2-yl)piperidin-4-yl)(1-methyl-1H-pyrrol-2-yl) methanone oxalate]
σ1 receptors
  Ki: 1.3 ± 0.093 µM
σ2 receptor [3]; [8]
  Ki: 2550 ± 339 nM
VAChT [5]
  Ki: 0.0184 ± 0.00254 µM
  VAChT/σ selectivity: moderate or high
  σ1/VAChT: 70.7
  σ2/VAChT: 138.8
σ2 receptor [4]
  Ki: 2550 ± 339 nM

## COc1ccc(C(=O)C2CCN(C3Cc4c(N)cccc4CC3O)CC2)cn1 (centres unmarked) [OS-5-82, (1-(8-Amino-3-hydroxy-1,2,3,4-tetrahydronaphthalen-2-yl)piperidin-4-yl)(6-methoxypyridin-3-yl)methanone oxalate]
[6]; Table 4, Ki values of VAChT specific compounds, source not given, read-out: VAChT
  Ki: 23.3 ± 3.43 nM
σ1 receptors
  Ki: 5.682 ± 0.026 µM
σ2 receptor [3]; Table 4, Ki values of VAChT specific compounds, tissue not given, read-out: Sigma-2 σ1
  Ki: 10800 ± 1280 nM
VAChT [5]
  Ki: 0.048 ± 0.0114 µM
  VAChT/σ selectivity: moderate or high
  σ1/VAChT: 118.4
  σ2/VAChT: 225.3
σ2 receptor [4]
  Ki: 10800 ± 1280 nM
σ1 receptor [7]; Table 4, Ki values of VAChT specific compounds, tissue not given, read-out: Sigma-1 σ1
  Ki: 5.682 ± 0.026 µM

## Nc1cccc2c1CC(N1CCC(C(=O)c3cccnc3)CC1)C(O)C2 (centres unmarked) [OS-5-110, (1-(8-Amino-3-hydroxy-1,2,3,4-tetrahydronaphthalen-2-yl)piperidin-4-yl)(pyridin-3-yl)methanone oxalate]
[6]; VAChT (nM), Table 4, Ki values of VAChT specific compounds, source not given
  Ki: 2.2 nM
σ1 receptors
  Ki: 20.3 ± 8.13 µM
σ2 receptor [3]; [8]
  Ki: 5080 ± 221 nM
VAChT [5]
  Ki: 0.118 ± 0.0236 µM
  VAChT/σ selectivity: moderate or high
  σ1/VAChT: 172.4
  σ2/VAChT: 43.0
σ2 receptor [4]
  Ki: 5080 ± 221 nM

## O=C(c1ccc(OCCF)cc1)C1CCN(C2Cc3ccccc3CC2O)CC1 (centres unmarked) [TZ-3-148]
σ1 receptors
  Ki: 0.0132 ± 0.0002 µM
VAChT [5]
  VAChT/σ selectivity: poor selectivity
σ2 receptor [4]
  Ki: 1890 ± 239 nM

## CNc1ccc(C(=O)C2CCN(C3Cc4ccccc4CC3O)CC2)cc1 (centres unmarked) [TZ-3-156]
σ1 receptors
  Ki: 0.0132 ± 0.00048 µM
VAChT [5]
  Ki: 0.00303 µM
  VAChT/σ selectivity: high selectivity
  σ1/VAChT: 100.5
  σ2/VAChT: 2040
σ2 receptor [4]
  Ki: 6180 ± 537 nM

## O=C(c1ccc(OCCF)nc1)C1CCN([C@H]2Cc3ccccc3C[C@@H]2O)CC1 [TZ-5-3]
σ1 receptors
  Ki: 2.12 ± 0.049 µM
VAChT [5]
  Ki: 0.038 ± 0.00384 µM
  VAChT/σ selectivity: moderate or high
  σ1/VAChT: 55.8
  σ2/VAChT: 48.9
σ2 receptor [4]
  Ki: 1860 ± 144 nM

## OC1CN(Cc2cccc(I)c2)CCC1N1CCC(c2ccccc2)CC1 (centres unmarked) [meta-iodobenzyltrozamicol]
σ1 receptor [2]
  Ki: 0.092 µM

## (4-Fluorophenyl)(4′-hydroxy-1′-(pyridin-4-ylmethyl)-[1,3′-bipiperidin]-4-yl)methanone [Compound 16d]
[6]; expressed human VAChT, mean ± SEM, read-out: VAChT (Ki)
  Ki: 237 nM
σ2 receptor [3]; homogenates of rat liver, mean ± SEM, read-out: σ2 (Ki)
  Ki: 13000 ± 2630 nM
σ1 receptor [7]; membrane preparations of guinea pig brain, mean ± SEM, at least three experiments, read-out: σ1 (Ki)
  Ki: 1.16 ± 0.128 µM
σ1 receptor [7]; ratio of Ki values, Table 1
  σ1/VAChT selectivity: 0.20
  σ1/σ2 selectivity: 11
